Reference: patent publication US20080249064A1, “Activities of an active principle obtained from powdered alfalfa seeds (Medicago sativa), active principle used and process of obtaining the same” (SOCIETE INDUSTRIELLE LIMOUSINE D'APPLICATION BIOLOGIQUE …, priority 2004, published 2008)

Columns and labels:
[1] = test system: skin; experiment: Irritating skin reactions in volunteers of the in vivo studies; design: species or system human; conditions: topical emulsion (active principle 4%, retinol 0.15%), bi-daily for 28 days
Experimental: The active principle is formulated at 4% in an emulsion. Retinol is formulated at 0.15% in an emulsion.
The 2 formulae are tests and 2 groups of volunteers, against a placebo.
The tests have shown the influence of the active principle or of retinol on the appearance of crows-feet wrinkles, after bi-daily application for 28 days.
The active principle is formulated at 4% in emulsion, and retinol is formulated at 0.15% in an emulsion.
The 2 formulations are tested on 2 groups of volunteers, against a placebo.
The tests are carried out and the influence of the active principle or of retinol on the appearance of cutaneous micro-relief, after bi-daily application for 28 days.

[2] = test system: collagen I; experiment: Synthesis of collagen I in human fibroblasts by ELISA dosage; format: cell-based; conditions: normal human fibroblasts; retinol at 10^-5 M
Experimental: The study is conducted on human fibroblasts by ELISA dosage. The fibroblasts are incubated in the presence or not of the active principle, of the fractions or of retinol at 10^−5 M. The results are shown in FIG. 2. Tests have been carried out on normal human fibroblasts by ELISA dosage. The fibroblasts were treated with retinol at 10^−5 M or with the active principle at 0.1%, 0.25% and 0.5%.

[3] = test system: cutaneous micro-relief; experiment: Smoothing effect on cutaneous micro-relief of forearms in volunteers (profilometer); format: in vivo, human; conditions: active principle 4% or retinol 0.15% in emulsion, bi-daily for 28 days, against placebo
Experimental: The active principle is formulated at 4% in emulsion, and retinol is formulated at 0.15% in an emulsion. The 2 formulations are tested on 2 groups of volunteers, against a placebo. The tests are carried out and the influence of the active principle or of retinol on the appearance of cutaneous micro-relief, after bi-daily application for 28 days. The analyses are carried out by observation of prints of the cutaneous micro-relief with the help of a profilometer associated with an image analyzer. The zones in question in this study are cutaneous zones of the forearms. The observed parameter is the mean rugosity of the micro-contour.

**Q.** Which results are given for `CC1=C(/C=C/C(C)=C/C=C/C(C)=C/CO)C(C)(C)CCC1` [retinol]?
**A.** irritating skin reactions [1]: reactions of the irritating skin type; increase of the synthesis of collagen I [2]: 171%; smoothing effect on the micro-contour (mean rugosity) relative to the comparison [3]: 8%
